As usually defined, the MIC is the lowest concentration found to suppress growth. A low value points to inhibition by little substance.

In brackets after ≈: the same amount, converted by molar mass.

MIC data for two compounds are collected here from patent US20060014702A1, “Antimicrobial agent” (priority 2002, published 2006).

Assay in all cases: Minimum Inhibitory Concentration (MIC) assay
Type in all cases: cell-based

One experiment has as its system Bacillus subtilis. The conditions noted are these: LB broth, 37° C., 6 hours. As to the method: (§1) Inhibition of various bacteria by compounds 4 (n=9) and 6 (n=9) is described in Table 1. The biological data were determined by minimum Inhibitory Concentration (MIC) Assays. Each compound was added to 4 ml LB broth at a starting concentration of 200 μg/ml. Serial dilutions were then made, 1 in 2 at each step, ending with 0.2 μg/ml. 5 μL of a saturated culture was added to each serial dilution, and incubated at 37° C. with shaking for 6 hours. The MIC was then determined as the lowest concentration showing inhibited bacterial growth.

For another experiment, the system named is Enterococcus faecalis. The conditions noted are these: LB broth, 37° C., 6 hours. The procedure: as §1
Another experiment deals with Mycobacterium smegmatis. As to conditions: Mycolicibacterium smegmatis, LB broth, 37° C., 6 hours. As to the method: as §1
For a further experiment, the system named is Staphylococcus aureus. As to conditions: LB broth, 37° C., 6 hours. As to the method: as §1

Take `CCCCCCCCCCS[C@@H]1O[C@@H]([C@H](O)CO)[C@H](O)[C@H]1O` [4 (n = 9), Decyl 1-thio-β-D-galactofuranoside]: the MIC is 25 µg/mL (≈ 74.3 µM) in the experiment with Bacillus subtilis, above 200 µg/mL in the experiment on Enterococcus faecalis, below 0.2 µg/mL against Mycobacterium smegmatis and below 0.2 µg/mL in the experiment with Staphylococcus aureus.
For `CCCCCCCCCCC(CCCCCCCCCC)S[C@@H]1O[C@@H]([C@H](O)CO)[C@H](O)[C@H]1O` [6 (n = 9), 11-heneicosanyl 1-thio-β-D-galactofuranoside], the MIC against Bacillus subtilis was above 200 µg/mL; in the experiment on Enterococcus faecalis, 200 µg/mL (≈ 408 µM); against Mycobacterium smegmatis it was below 0.2 µg/mL; in the experiment with Staphylococcus aureus, below 0.2 µg/mL.
